ChEMBL document CHEMBL1158510, “Hybrid anticancer agents: isothiocyanate-progesterone conjugates as chemotherapeutic agents and insights into their cytotoxicities” (Bioorg Med Chem Lett, 2010)

Key:
Format in all cases: functional, cell-based
[1] = tested on: MDA-MB-231; test: Cytotoxicity against human MDA-MB-231 cells after 72 hrs by MTT assay; settings: MDA-MB-231, 72 h
[2] = tested on: BT-20; test: Cytotoxicity against human BT20 cells after 72 hrs by MTT assay; settings: BT-20, 72 h
[3] = tested on: PC-3; test: Cytotoxicity against human PC3 cells after 72 hrs by MTT assay; settings: PC-3, 72 h
[4] = tested on: MCF7; test: Cytotoxicity against human MCF7 cells after 72 hrs by MTT assay; settings: MCF7, 72 h

In the case of CC(=O)[C@H]1CC[C@H]2[C@@H]3CCC4=C/C(=N/NC(N)=S)CC[C@]4(C)[C@H]3CC[C@]12C, the IC50 [1] is reported as 25 µM, the IC50 [2] is reported as 5.3 µM and the IC50 [3] is reported as 16 µM. For the same compound, the IC50 [4] was 20 µM.
